Test results as given in ChEMBL document CHEMBL4814029, “Design, synthesis, and structure-activity relationship of programmed cell death-1/programmed cell death-ligand 1 interaction inhibitors bearing a benzo[d]isothiazole scaffold” (Eur J Med Chem, 2021).

Molecular target: Programmed cell death 1 ligand 1 (Homo sapiens, UniProt Q9NZQ7)
Assay: Inhibition of PDL1 (unknown origin)
Conditions: not given

Chain of Programmed cell death 1 ligand 1 (Q9NZQ7 whole entry): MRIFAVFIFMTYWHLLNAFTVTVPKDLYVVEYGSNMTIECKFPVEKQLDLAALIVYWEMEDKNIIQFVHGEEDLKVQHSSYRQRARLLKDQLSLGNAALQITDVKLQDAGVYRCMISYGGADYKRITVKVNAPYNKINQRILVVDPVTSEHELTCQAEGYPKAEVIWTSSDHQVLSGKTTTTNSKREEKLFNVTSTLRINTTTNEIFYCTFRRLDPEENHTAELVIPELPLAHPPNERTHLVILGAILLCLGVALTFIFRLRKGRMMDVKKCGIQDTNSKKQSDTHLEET

Point of comparison: `C[C@@H](O)[C@H](NCc1cc(Cl)c(OCc2cccc(-c3ccccc3)c2Br)cc1OCC1CC1)C(=O)O`, IC50 0.0102 µM. Against it:
- N#Cc1cncc(COc2cc(OC3CCc4c(-c5ccccc5)cccc43)c(Cl)cc2CN[C@@H](CO)C(=O)O)c1 (stereo partly drawn) — not separable, < 0.1 µM
- N#Cc1c(NC(=O)c2nc3c(s2)CNCC3)cccc1-c1ccc2c(c1)OCCO2 — not separable, < 0.1 µM
- Cc1cc(C(=O)Nc2cccc(-c3ccc4c(c3)OCCO4)c2C)ncc1CN1CCCC[C@H]1C(=O)O — lower, < 0.01 µM

System: not listed separately
Assay: Growth inhibition of CHO cells expressing PDL-1/TCRa incubated for 24 hrs by Cell Titer-Glo luminescent cell viability assay
Type: cell-based, Cricetulus griseus
Conditions: chinese hamster

`O=C(O)[C@H](CO)NCc1ccc2c(Nc3cccc(-c4ccc5c(c4)OCCO5)c3Cl)nsc2c1` and `Cc1c(COc2cc(OCc3cccc(C#N)c3)c(CN3C[C@H](O)C[C@@H]3C(=O)O)cc2Cl)cccc1-c1ccc2c(c1)OCCO2` cannot be ordered by GI50 at 24 h: > 30 µM for the first, > 30 µM for the second.

System: not listed separately
Assay: Inhibition of PD-1/PDL-1-mediated immune checkpoint using CHO cells expressing PDL-1/TCRa and human Jurkat cells expressing PD-1/NFAT-Luc assessed as Jurkat T lymphocyte activation by measuring maximal luminescence value measured after 6 hrs by luciferase reporter gene based luminescence assay
Conditions: not given

Point of comparison: `Cc1c(COc2cc(OCc3cccc(C#N)c3)c(CN3C[C@H](O)C[C@@H]3C(=O)O)cc2Cl)cccc1-c1ccc2c(c1)OCCO2`, RLU 2240. Against it:
- O=C(O)[C@H](CO)NCc1ccc2c(Nc3cccc(-c4ccc5c(c4)OCCO5)c3Cl)nsc2c1 — higher, 3260

System: not listed separately
Assay: Inhibition of PD-1/PDL-1-mediated immune checkpoint using CHO cells expressing PDL-1/TCRa and human Jurkat cells expressing PD-1/NFAT-Luc assessed as Jurkat T lymphocyte activation measured after 6 hrs by luciferase reporter gene based luminescence assay
Conditions: not given

Point of comparison: `Cc1c(COc2cc(OCc3cccc(C#N)c3)c(CN3C[C@H](O)C[C@@H]3C(=O)O)cc2Cl)cccc1-c1ccc2c(c1)OCCO2`, EC50 3.1 µM. Against it:
- O=C(O)[C@H](CO)NCc1ccc2c(Nc3cccc(-c4ccc5c(c4)OCCO5)c3Cl)nsc2c1 — 1.8-fold higher, 5.6 µM

In the case of `O=C(O)[C@H](CO)NCc1ccc2c(Nc3cccc(-c4ccc5c(c4)OCCO5)c3Cl)nsc2c1`, the inhibition is reported as “Dose-Dependent Effect”.
For `Cc1c(COc2cc(OCc3cccc(C#N)c3)c(CN3C[C@H](O)C[C@@H]3C(=O)O)cc2Cl)cccc1-c1ccc2c(c1)OCCO2`, the inhibition was “Dose-Dependent Effect”.

Molecular target: Programmed cell death protein 1/Programmed cell death 1 ligand 1 (Homo sapiens, UniProt Q15116+Q9NZQ7)
Assay: Inhibition of Tag2-PD-1/Tag1-PDL-1 (unknown origin) interaction incubated for 15 mins by TR-FRET assay
Type: protein-complex assay
Conditions: not given

Chain of Programmed cell death protein 1/Programmed cell death 1 ligand 1 (Q15116 whole entry): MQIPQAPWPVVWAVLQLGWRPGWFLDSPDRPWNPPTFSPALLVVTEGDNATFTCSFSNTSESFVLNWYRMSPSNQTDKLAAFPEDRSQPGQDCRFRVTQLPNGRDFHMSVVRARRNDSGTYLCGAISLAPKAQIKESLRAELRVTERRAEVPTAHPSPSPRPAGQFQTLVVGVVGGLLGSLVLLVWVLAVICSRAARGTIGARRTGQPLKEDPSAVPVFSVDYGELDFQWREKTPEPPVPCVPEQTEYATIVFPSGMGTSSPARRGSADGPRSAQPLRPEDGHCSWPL
Chain of Programmed cell death protein 1/Programmed cell death 1 ligand 1 (Q9NZQ7 whole entry): as the sequence (Q9NZQ7 whole entry) above

Point of comparison: `O=C(O)C1CCCN(Cc2ccc3c(Nc4cccc(-c5ccc6c(c5)OCCO6)c4Cl)nsc3c2)C1` (racemic), IC50 0.517 µM. Against it:
- CC1(O)CCN(Cc2ccc3snc(Nc4cccc(-c5ccc6c(c5)OCCO6)c4Cl)c3c2)C1 (racemic) — 2.9-fold lower, 0.177 µM
- O=C(O)[C@H](CO)NCc1ccc2c(Nc3cccc(-c4ccc5c(c4)OCCO5)c3F)nsc2c1 — within 1.5-fold, 0.486 µM
- CN(CC(=O)O)Cc1ccc2c(Nc3cccc(-c4ccc5c(c4)OCCO5)c3Cl)nsc2c1 — 3.5-fold lower, 0.147 µM
- O[C@@H]1CCN(Cc2ccc3c(Nc4cccc(-c5ccc6c(c5)OCCO6)c4Cl)nsc3c2)C1 — 4.9-fold lower, 0.106 µM
- COC[C@H](NCc1ccc2c(Nc3cccc(-c4ccc5c(c4)OCCO5)c3Cl)nsc2c1)C(=O)O — 6.5-fold lower, 0.0791 µM
- O=C(O)C[C@H](NCc1ccc2c(Nc3cccc(-c4ccc5c(c4)OCCO5)c3Cl)nsc2c1)C(=O)O — within 1.5-fold, 0.474 µM
- O=C(O)C1CCCN1Cc1ccc2c(Nc3cccc(-c4ccc5c(c4)OCCO5)c3Cl)nsc2c1 (racemic) — 4.7-fold lower, 0.11 µM
- C[C@H](NCc1ccc2c(Nc3cccc(-c4ccc5c(c4)OCCO5)c3Cl)nsc2c1)C(=O)O — 12-fold lower, 0.0444 µM
- COc1ccc(-c2cccc(Nc3nsc4cc(CN[C@@H](CO)C(=O)O)ccc34)c2Cl)cc1OC — higher, > 1 µM
- O=C(O)CNCc1ccc2c(Nc3cccc(-c4ccc5c(c4)OCCO5)c3Cl)nsc2c1 — 15-fold lower, 0.0356 µM
- C[C@@H](NCc1ccc2c(Nc3cccc(-c4ccc5c(c4)OCCO5)c3Cl)nsc2c1)C(=O)O — 12-fold lower, 0.0434 µM
- O=C(O)CCCCOc1ccc(-c2cccc(Nc3nsc4cc(CN[C@@H](CO)C(=O)O)ccc34)c2Cl)cc1 — higher, > 1 µM
- CC1(O)CCN(Cc2ccc3c(Nc4cccc(-c5ccc6c(c5)OCCO6)c4Cl)nsc3c2)C1 (racemic) — 5.2-fold lower, 0.0987 µM
- CC(C)[C@H](NCc1ccc2c(Nc3cccc(-c4ccc5c(c4)OCCO5)c3Cl)nsc2c1)C(=O)O — 7-fold lower, 0.0737 µM
- Cc1c(Nc2nsc3cc(CN[C@@H](CO)C(=O)O)ccc23)cccc1-c1ccc2c(c1)OCCO2 — 6.6-fold lower, 0.078 µM
- O=C(O)[C@@H]1C[C@@H](O)CN1Cc1ccc2c(Nc3cccc(-c4ccc5c(c4)OCCO5)c3Cl)nsc2c1 — 29-fold lower, 0.0177 µM
- O=C(O)C1CCN(Cc2ccc3c(Nc4cccc(-c5ccc6c(c5)OCCO6)c4Cl)nsc3c2)CC1 — 8.6-fold lower, 0.0601 µM
- O=C(O)C1CN(Cc2ccc3c(Nc4cccc(-c5ccc6c(c5)OCCO6)c4Cl)nsc3c2)C1 — 7.1-fold lower, 0.0726 µM
- O[C@H]1CCN(Cc2ccc3c(Nc4cccc(-c5ccc6c(c5)OCCO6)c4Cl)nsc3c2)C1 — 4.7-fold lower, 0.109 µM
- O=C(O)[C@H](CO)NCc1ccc2c(Nc3cccc(-c4cccc5c4CCN5CCCN4CCC(O)C4)c3Cl)nsc2c1 (stereo partly drawn) — 2.2-fold lower, 0.231 µM
- COc1c(Nc2nsc3cc(CN[C@@H](CO)C(=O)O)ccc23)cccc1-c1ccc2c(c1)OCCO2 — higher, > 1 µM
- OC1CCN(Cc2ccc3c(Nc4cccc(-c5ccc6c(c5)OCCO6)c4Cl)nsc3c2)C1 (racemic) — 8.9-fold lower, 0.0584 µM
- O=C(O)[C@@H](CO)NCc1ccc2c(Nc3cccc(-c4ccc5c(c4)OCCO5)c3Cl)nsc2c1 — 48-fold lower, 0.0108 µM
- O=C(O)[C@H](CO)NCc1ccc2c(Nc3cccc(-c4ccccc4)c3Cl)nsc2c1 — 13-fold lower, 0.0403 µM
- OC1CCN(Cc2ccc3snc(Nc4cccc(-c5ccc6c(c5)OCCO6)c4Cl)c3c2)C1 (racemic) — 2.1-fold lower, 0.251 µM
- O=C(O)CCCCOc1cccc(-c2cccc(Nc3nsc4cc(CN[C@@H](CO)C(=O)O)ccc34)c2Cl)c1 — higher, > 1 µM
- O=C(O)[C@H](CO)NCc1ccc2c(Nc3cccc(-c4ccc5nccnc5c4)c3Cl)nsc2c1 — higher, > 1 µM
- OC1CCN(Cc2ccc3snc(Nc4cccc(-c5ccc6c(c5)OCCO6)c4Cl)c3c2)CC1 — 1.7-fold higher, 0.854 µM
- OCC(CO)NCc1ccc2c(Nc3cccc(-c4ccc5c(c4)OCCO5)c3Cl)nsc2c1 — 8.9-fold lower, 0.0583 µM
- OC1CCN(Cc2ccc3c(Nc4cccc(-c5ccc6c(c5)OCCO6)c4Cl)nsc3c2)CC1 — 3.3-fold lower, 0.158 µM
- O=C(O)C1CCN(Cc2ccc3c(Nc4cccc(-c5ccc6c(c5)OCCO6)c4Cl)nsc3c2)C1 (racemic) — 7.1-fold lower, 0.0733 µM
- O=C(O)[C@H](CO)NCc1ccc2c(Nc3cccc(-c4cccc(O)c4)c3Cl)nsc2c1 — 3.6-fold lower, 0.143 µM
- O=C(O)C1CCN1Cc1ccc2c(Nc3cccc(-c4ccc5c(c4)OCCO5)c3Cl)nsc2c1 (racemic) — 3.9-fold lower, 0.131 µM
- O=C(O)[C@H](CO)NCc1ccc2c(Nc3cccc(-c4ccc5c(c4)OCCO5)c3Cl)nsc2c1 — 61-fold lower, 0.0085 µM
- OC1CCCN(Cc2ccc3snc(Nc4cccc(-c5ccc6c(c5)OCCO6)c4Cl)c3c2)C1 (racemic) — 1.6-fold lower, 0.327 µM
- O=C(O)[C@H](CO)NCc1ccc2c(Nc3cccc(-c4ccc5c(c4)OCO5)c3Cl)nsc2c1 — 15-fold lower, 0.0347 µM
- OC1CCCN(Cc2ccc3c(Nc4cccc(-c5ccc6c(c5)OCCO6)c4Cl)nsc3c2)C1 (racemic) — 3.2-fold lower, 0.164 µM
- O=C(O)[C@H](CO)NCc1ccc2c(Nc3cccc(-c4ccc5c(c4)OCCO5)c3)nsc2c1 — higher, > 1 µM

System: not listed separately
Assay: Growth inhibition of CHO cells expressing PDL-1/TCRa measured after 24 hrs co-culturing with human Jurkat cells expressing PD-1/NFAT-Luc in presence of compound by Cell Titer-Glo luminescent cell viability assay
Type: cell-based, Cricetulus griseus
Conditions: chinese hamster

`O=C(O)[C@H](CO)NCc1ccc2c(Nc3cccc(-c4ccc5c(c4)OCCO5)c3Cl)nsc2c1` and `Cc1c(COc2cc(OCc3cccc(C#N)c3)c(CN3C[C@H](O)C[C@@H]3C(=O)O)cc2Cl)cccc1-c1ccc2c(c1)OCCO2` cannot be ordered by GI50 at 24 h: > 30 µM for the first, > 30 µM for the second.
